Data: PubChem BioAssay AID2060326 (Molecular Pharmacology Branch, DTP, NCI, 2025)

System: MDA-MB-468 multi-cell spheroids, viability
Test: Anticancer human tumor MDA-MB-468 cell line growth inhibition [IpAb];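 further: spheroids exposed to agents for seven days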;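 on viability, T/C: 100% = DMSO vehicle control viability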
Conditions: for IC50: curve of first compound; for viability, T/C: stronger effect = lower value
Outline: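 Combinations with ipatasertib or abemaciclib were tested on tumour spheroids holding HUVEC (25%) and MSC (15%) alongside 60% malignant cells. Top concentration was at or near clinical Cmax (10 microM if undefined), descending in half-log steps.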

[1] = second compound 0.01 µM, first compound 0.0316 µM
[2] = second compound 0.01 µM, first compound 0.1 µM
[3] = second compound 0.01 µM, first compound 0.316 µM
[4] = second compound 0.01 µM, first compound 1 µM
[5] = second compound 0.0316 µM, first compound 0.0316 µM
[6] = second compound 0.0316 µM, first compound 0.1 µM
[7] = second compound 0.0316 µM, first compound 0.316 µM
[8] = second compound 0.0316 µM, first compound 1 µM
[9] = second compound 0.1 µM, first compound 0.0316 µM
[10] = second compound 0.1 µM, first compound 0.1 µM
[11] = second compound 0.1 µM, first compound 0.316 µM
[12] = second compound 0.1 µM, first compound 1 µM
[13] = second compound 0.316 µM, first compound 0.0316 µM
[14] = second compound 0.316 µM, first compound 0.1 µM
[15] = second compound 0.316 µM, first compound 0.316 µM
[16] = second compound 0.316 µM, first compound 1 µM
[17] = second compound 1 µM, first compound 0.0316 µM
[18] = second compound 1 µM, first compound 0.1 µM
[19] = second compound 1 µM, first compound 0.316 µM
[20] = second compound 1 µM, first compound 1 µM
[21] = second compound 0.01 µM, first compound 3.16 µM
[22] = second compound 0.01 µM, first compound 10 µM
[23] = second compound 0.0316 µM, first compound 3.16 µM
[24] = second compound 0.0316 µM, first compound 10 µM
[25] = second compound 0.1 µM, first compound 3.16 µM
[26] = second compound 0.1 µM, first compound 10 µM
[27] = second compound 0.316 µM, first compound 3.16 µM
[28] = second compound 0.316 µM, first compound 10 µM
[29] = second compound 1 µM, first compound 3.16 µM
[30] = second compound 1 µM, first compound 10 µM

| Compound | IC50 (second compound 0.01 µM) [µM] | IC50 (second compound 0.0316 µM) [µM] | IC50 (second compound 0.1 µM) [µM] | IC50 (second compound 0.316 µM) [µM] | IC50 (second compound 1 µM) [µM] | viability, T/C [1] [%] | viability, T/C [2] [%] | viability, T/C [3] [%] | viability, T/C [4] [%] | viability, T/C [5] [%] | viability, T/C [6] [%] | viability, T/C [7] [%] | viability, T/C [8] [%] | viability, T/C [9] [%] | viability, T/C [10] [%] | viability, T/C [11] [%] | viability, T/C [12] [%] | viability, T/C [13] [%] | viability, T/C [14] [%] | viability, T/C [15] [%] | further results |
| --- | --- | --- | --- | --- | --- | --- | --- | --- | --- | --- | --- | --- | --- | --- | --- | --- | --- | --- | --- | --- | --- |
| COc1c(OCCCN2CCOCC2)ccc2c3n(c(=NC(=O)c4cnc(N)nc4)nc12)CCN3 + CCN1CCN(Cc2ccc(Nc3ncc(F)c(-c4cc(F)c5nc(C)n(C(C)C)c5c4)n3)nc2)CC1 | 0.145 | 0.109 | 0.0917 | 0.111 | 0.0754 | 78.6 | 66.9 | 20.9 | 3.88 | 73.5 | 54.7 | 21.9 | 3.58 | 78.4 | 50.1 | 16.1 | 3.39 | 86.8 | 50.8 | 21.2 | viability, T/C (second compound 0.01 µM, first compound 0.00316 µM): 101%; viability, T/C (second compound 0.01 µM, first compound 0.01 µM): 79.4%; viability, T/C (second compound 0.0316 µM, first compound 0.00316 µM): 93%; viability, T/C (second compound 0.0316 µM, first compound 0.01 µM): 85.6%; viability, T/C (second compound 0.1 µM, first compound 0.00316 µM): 109%; viability, T/C (second compound 0.1 µM, first compound 0.01 µM): 93.8%; viability, T/C (second compound 0.316 µM, first compound 0.00316 µM): 80.6%; viability, T/C (second compound 0.316 µM, first compound 0.01 µM): 98.7%; viability, T/C [16]: 6.79%; viability, T/C (second compound 1 µM, first compound 0.00316 µM): 75%; viability, T/C (second compound 1 µM, first compound 0.01 µM): 73.6%; viability, T/C [17]: 59.7%; viability, T/C [18]: 49%; viability, T/C [19]: 21%; viability, T/C [20]: 7.2% |
| Cc1nc(NC(=O)N2CCCC2C(N)=O)sc1-c1ccnc(C(C)(C)C(F)(F)F)c1 (stereo not given) + CCN1CCN(Cc2ccc(Nc3ncc(F)c(-c4cc(F)c5nc(C)n(C(C)C)c5c4)n3)nc2)CC1 | 7.82 | 5.28 | 4.97 | 3.89 | 1.29 | 108 | 90.6 | 102 | 79.2 | 77.8 | 83.4 | 68 | 86 | 99.8 | 91.9 | 98.9 | 86 | 91 | 89.7 | 77.7 | viability, T/C [21]: 102%; viability, T/C [22]: 37.4%; viability, T/C [23]: 69%; viability, T/C [24]: 24.4%; viability, T/C [25]: 67.3%; viability, T/C [26]: 23.7%; viability, T/C [16]: 79.3%; viability, T/C [27]: 57.2%; viability, T/C [28]: 16.5%; viability, T/C [17]: 57.9%; viability, T/C [18]: 68.1%; viability, T/C [19]: 62.9%; viability, T/C [20]: 55.1%; viability, T/C [29]: 30.6%; viability, T/C [30]: 6.3% |
| Cn1nccc1Nc1nccc(-c2ccn(C(CO)c3ccc(Cl)c(F)c3)c(=O)c2)n1 (stereo not given) + CCN1CCN(Cc2ccc(Nc3ncc(F)c(-c4cc(F)c5nc(C)n(C(C)C)c5c4)n3)nc2)CC1 | 4.35 | 4.7 | 3.83 | 4.19 | 4.42 | 92 | 83 | 86 | 77.7 | 93.3 | 77.9 | 71 | 84.6 | 93.6 | 87.5 | 86.2 | 83.1 | 104 | 92.2 | 89.2 | viability, T/C [21]: 70%; viability, T/C [22]: 3.11%; viability, T/C [23]: 73.1%; viability, T/C [24]: 6.23%; viability, T/C [25]: 58.5%; viability, T/C [26]: 5.62%; viability, T/C [16]: 78.7%; viability, T/C [27]: 68.2%; viability, T/C [28]: 9.01%; viability, T/C [17]: 86.5%; viability, T/C [18]: 78.8%; viability, T/C [19]: 74.5%; viability, T/C [20]: 85.9%; viability, T/C [29]: 64.2%; viability, T/C [30]: 15.3% |
